Measured values: patent US11813274B2, “Treating untreated or treatment-resistant diabetes with glucokinase activator and sodium-glucose cotransporter-2 inhibitor” (HUA Medicine (Shanghai) Ltd., priority 2020, dated 2023)

Experiments:
[1] = tested on: subjects with Type-2 Diabetes Mellitus (T2DM); assay: Oral glucose tolerance test (OGTT): serum glucose pharmacodynamic response; type: in vivo, human; conditions: baseline corrected, after 75-gram OGTT 30 min post-dose, Days 5, 10, 15
Method: (§1) On Days 5, 10 and 15, a 75-gram glucose solution (oral glucose tolerance test, OGTT) was administered 30 min post-drug administration. No breakfast was provided.
(§2) Pharmacodynamic (PD) responses, i.e., serum levels of glucose, insulin and C-peptide and plasma levels of glucagon, were evaluated on Days 5, 10 and 15: pre-dose (within 60 min prior to glucose intake) and at 0.5, 1, 1.5, 2, 2.5, 3 and 4 h post-glucose intake. Urine was collected for urinary glucose excretion on Days 5, 10 and 15: pre-dose (for bladder emptying only, no pre-dose glucose measurement), and over a series of intervals (0-2 h, 2-4 h, 4-6 h, 6-8 h, 8-12 h and 12-24 h post-dose).

[2] = in vivo
Method: This phase I study accessed the pharmacokinetic interaction between dorzagliatin and empagliflozin in T2DM subjects.
Sixteen eligible subjects were enrolled and 15 of them completed the study.
All subjects received: (i) empagliflozin (25 mg, QD) on Days 1-5; and empagliflozin was taken 60 min prior to meals (except on Day 5, when it was administered 30 min before glucose intake); (ii) empagliflozin (25 mg, QD) and dorzagliatin (75 mg, BID) on Days 6-10 (only the morning dose on Day 10); and empagliflozin and dorzagliatin were taken 60 min prior to meals (except on Day 10, when they were administered 30 min before glucose intake); or (iii) dorzagliatin 75 mg BID on Days 11-15 (only the morning dose on Day 15); and dorzagliatin was taken 60 min prior to meals (except on Day 15, when it was administered 30 min before glucose intake).
Blood samples for the determination of dorzagliatin and empagliflozin concentrations and corresponding pharmacokinetic (PK) analysis were collected at the following time points on Days 5, 10 and 15: pre-dose (within 30 min prior to drug dosing) and at 0.25, 0.5, 1, 1.5, 2, 3, 4, 6, 8, 10, 12, 18 and 24 h post-dose. […]
The plasma concentration-time data for dorzagliatin and empagliflozin were analyzed using non-compartmental methods to calculate PK parameters.

[3] = tested on: subjects with Type-2 Diabetes Mellitus (T2DM); assay: Oral glucose tolerance test (OGTT): serum C-peptide pharmacodynamic response; type: in vivo, human; conditions: baseline corrected, after 75-gram OGTT, Days 5, 10, 15
Method: as §1, §2

SMILES: CC(C)C[C@@H](C(=O)Nc1ccn(C[C@@H](O)CO)n1)N1CC(Oc2ccccc2Cl)=CC1=O [Dorzagliatin, (S)-2-(4-(2-chlorophenoxy)-2-oxo-2,5-dihydro-1H-pyrrol-1-yl)-N-(1-((R)-2,3-dihydroxypropyl)-1H-pyrazol-3-yl)-4-methylpentanamide]
- Glucose response AUEC0-4 h, mean [1]: 364 mg·h/dL
- Glucose response CEav, mean [1]: 91 mg/dL
- Glucose response CEmax, mean [1]: 163 mg/dL
- effect of dorzagliatin on empagliflozin PK parameters (drug-drug interaction) [2]: did not have a significant effect on empagliflozin PK parameters
- C-peptide response AUEC0-4 h, mean [3]: 13 ng·h/mL
- C-peptide response CEav, mean [3]: 3.2 ng/mL
- C-peptide response CEmax, mean [3]: 5.5 ng/mL

SMILES: OC[C@H]1O[C@@H](c2ccc(Cl)c(Cc3ccc(OC4CCOC4)cc3)c2)[C@H](O)[C@@H](O)[C@@H]1O (stereo in doubt) [Empagliflozin, (2S,3R,4R,5S,6R)-2-[4-chloro-3({4-[(3S)-oxolan-3-yloxy]phenyl}methyl)phenyl]-6-(hydroxymethyl)oxane-3,4,5-triol]
- Glucose response AUEC0-4 h, mean [1]: 452 mg·h/dL
- Glucose response CEav, mean [1]: 113 mg/dL
- Glucose response CEmax, mean [1]: 199 mg/dL
- effect of empagliflozin on dorzagliatin PK parameters (drug-drug interaction) [2]: did not have a significant effect on dorzagliatin PK parameters
- C-peptide response AUEC0-4 h, mean [3]: 11 ng·h/mL
- C-peptide response CEav, mean [3]: 2.7 ng/mL
- C-peptide response CEmax, mean [3]: 4.7 ng/mL
